The source made the active and inactive calls. The calls are words filed in the database; no cut-off is given here.
Experiments:
MX1 [1] = test: Induction of apoptosis in human MX1 cells assessed as viable cells measured at 1 uM after 48 hrs by FITC-Annexin-V and propidium iodide based flow cytometric analysis (reference value: 88.4%); type: functional; conditions: read-out: Activity
MX1 [2] = test: Induction of apoptosis in human MX1 cells assessed as early apoptotic cells measured at 5 uM after 48 hrs by FITC-Annexin-V and propidium iodide based flow cytometric analysis (reference value: 6.30%); type: functional
MDA-MB-231 [3] = test: Induction of morphological changes in human MDA-MB-231 cells assessed as decrease in cell size at 0.5 to 2 uM measured after 24 hrs by bright field inverted microscopic analysis; type: functional, cell-based; conditions: dose 0.5-2 µM
MX1 [4] = test: Induction of apoptosis in human MX1 cells assessed as increase in cleaved PARP-1 expression at 0.5 to 2 uM by Western blotting analysis; type: functional, cell-based; conditions: dose 0.5-2 µM
MDA-MB-231 [5] = test: Induction of apoptosis in human MDA-MB-231 cells assessed as viable cells measured at 2 uM after 48 hrs by FITC-Annexin-V and propidium iodide based flow cytometric analysis (reference value: 94.4% ); type: functional; conditions: read-out: Activity
MDA-MB-231 [6] = test: Induction of cell cycle arrest in human MDA-MB-231 cells assessed as increase in CDK6 expression at 0.5 to 2 uM by Western blotting analysis; type: functional, cell-based; conditions: dose 0.5-2 µM, time 24.0 hrs
MDA-MB-231 [7] = test: Induction of apoptosis in human MDA-MB-231 cells assessed as necrotic cells measured at 5 uM after 48 hrs by FITC-Annexin-V and propidium iodide based flow cytometric analysis (reference value: 0.253 %); type: functional
MDA-MB-231 [8] = test: Induction of cell cycle arrest in human MDA-MB-231 cells assessed as accumulation of cells at G0/G1 phase incubated for 24 hrs by propidium iodide staining based FACS calibur flow cytometeric analysis; type: functional; conditions: dose 0.5-2 µM
HeLa = test: Antiproliferative activity against human HeLa cells assessed as reduction in cell viability after 96 hrs by MTT assay; type: functional, cell-based
MDA-MB-231 [9] = test: Induction of apoptosis in human MDA-MB-231 cells assessed as increase in cleaved PARP expression at 0.5 to 2 uM by Western blotting analysis; type: functional, cell-based; conditions: dose 0.5-2 µM
MDA-MB-231 [10] = test: Antiproliferative activity against human MDA-MB-231 cells assessed as reduction in cell viability by measuring release of nitrite at 100 uM after 180 mins by Griess reagent analysis; type: functional; conditions: 3 h
MX1 [11] = test: Induction of cell cycle arrest in human MX1 cells assessed as increase in CDK6 expression at 0.5 to 2 uM by Western blotting analysis; type: functional, cell-based; conditions: dose 0.5-2 µM, time 24.0 hrs
MDA-MB-231 [12] = test: Inhibition of PI3K/Akt signaling in human MDA-MB-231 cells assessed as decrease in phosphorylated S6 expression incubated for 24 hrs by Western blotting analysis; type: cell-based; conditions: dose 0.5-2 µM
MDA-MB-231 [13] = test: Induction of apoptosis in human MDA-MB-231 cells assessed as necrotic cells measured at 0.5 uM after 48 hrs by FITC-Annexin-V and propidium iodide based flow cytometric analysis (reference value: 0.253 %); type: functional
MDA-MB-231 [14] = test: Antitumor activity against human MDA-MB-231 cells xenografted in BALBC mouse assessed as inhibition of tumor growth at 150 mg/kg, IG administered every 3 days for 21 days relative to control; type: functional; conditions: MDA-MB-231, po, 504 h, time 21 day, read-out: TGI
MDA-MB-231 [15] = test: Inhibition of PI3K/Akt signaling in human MDA-MB-231 cells assessed as decrease in total Akt expression level incubated for 24 hrs by Western blotting analysis; type: cell-based
MDA-MB-231 [16] = test: Induction of apoptosis in human MDA-MB-231 cells assessed as early apoptotic cells measured at 1 uM after 48 hrs by FITC-Annexin-V and propidium iodide based flow cytometric analysis (reference value: 2.71%); type: functional
MX1 [17] = test: Induction of cell cycle arrest in human MX1 cells assessed as decrease in accumulation of cells at S phase at 0.5 to 2 uM measured after 24 hrs by propidium iodide staining based FACS calibur flow cytometeric analysis; type: functional; conditions: dose 0.5-2 µM
MX1 [18] = test: Induction of apoptosis in human MX1 cells assessed as necrotic cells measured at 1 uM after 48 hrs by FITC-Annexin-V and propidium iodide based flow cytometric analysis (reference value: 0.055 %); type: functional
NCI-H460 = test: Antiproliferative activity against human H460 cells assessed as reduction in cell viability after 96 hrs by MTT assay; type: functional, cell-based; conditions: NCI-H460, 96 h
MDA-MB-231 [19] = test: Antitumor activity against human MDA-MB-231 cells xenografted in BALBC mouse assessed as reduction of tumor volume at 150 mg/kg, IG administered every 3 days for 21 days relative to control; type: functional; set-up: scale not given: the % may be the effect or the level left; conditions: time 21 day
MX1 [20] = test: Induction of apoptosis in human MX1 cells assessed as downregulation of Bcl-2 by Western blotting analysis; type: functional, cell-based; conditions: dose 0.5-2 µM
MX1 [21] = test: Induction of apoptosis in human MX1 cells assessed as early apoptotic cells measured at 0.5 uM after 48 hrs by FITC-Annexin-V and propidium iodide based flow cytometric analysis (reference value: 6.30%); type: functional
MX1 [22] = test: Induction of apoptosis in human MX1 cells assessed as necrotic cells measured at 2 uM after 48 hrs by FITC-Annexin-V and propidium iodide based flow cytometric analysis (reference value: 0.055 %); type: functional
MDA-MB-231 [23] = test: Induction of apoptosis in human MDA-MB-231 cells assessed as upregulation of Bax by Western blotting analysis; type: functional, cell-based; conditions: dose 0.5-2 µM
MX1 [24] = test: Induction of apoptosis in human MX1 cells assessed as viable cells measured at 5 uM after 48 hrs by FITC-Annexin-V and propidium iodide based flow cytometric analysis (reference value: 88.4%); type: functional; conditions: read-out: Activity
MDA-MB-231 [25] = test: Antiproliferative activity against human MDA-MB-231 cells assessed as reduction in cell viability after 96 hrs by MTT assay; type: functional, cell-based; conditions: MDA-MB-231, 96 h
MDA-MB-231 [26] = test: Induction of apoptosis in human MDA-MB-231 cells assessed as downregulation of Bcl-2 by Western blotting analysis; type: functional, cell-based; conditions: dose 0.5-2 µM
MX1 [27] = test: Induction of apoptosis in human MX1 cells assessed as early apoptotic cells measured at 1 uM after 48 hrs by FITC-Annexin-V and propidium iodide based flow cytometric analysis (reference value: 6.30%); type: functional
MDA-MB-231 [28] = test: Induction of apoptosis in human MDA-MB-231 cells assessed as early apoptotic cells measured at 2 uM after 48 hrs by FITC-Annexin-V and propidium iodide based flow cytometric analysis (reference value: 2.71%); type: functional
MDA-MB-231 [29] = test: Induction of apoptosis in human MDA-MB-231 cells assessed as late apoptotic cells measured at 5 uM after 48 hrs by FITC-Annexin-V and propidium iodide based flow cytometric analysis (reference value: 2.68%); type: functional
MX1 [30] = test: Induction of apoptosis in human MX1 cells assessed as late apoptotic cells measured at 5 uM after 48 hrs by FITC-Annexin-V and propidium iodide based flow cytometric analysis (reference value: 5.24%); type: functional
EMT6 = test: Antitumor activity against mouse EMT6 cells allografted in BALBC mouse a assessed as reduction in tumor growth inhibition at 150 mg/kg, IG administered every 3 days for 21 days relative to control; type: functional; conditions: EMT6, po, 504 h, time 21 day, read-out: TGI
MDA-MB-231 [31] = test: Induction of apoptosis in human MDA-MB-231 cells assessed as early apoptotic cells measured at 0.5 uM after 48 hrs by FITC-Annexin-V and propidium iodide based flow cytometric analysis (reference value: 2.71%); type: functional

In the case of `CC1(C)C=Cc2c(c(/C=C/C(=O)NCCOc3no[n+]([O-])c3S(=O)(=O)c3ccccc3)cc3c2[nH]c2ccc(C(C)(C)C)cc23)O1`, the viability at 1 µM (MX1 [1]) is reported as 43.5%, the Activity (MX1 [2]) is reported as 57.8% and the Activity (MDA-MB-231 [3]) is reported as “Active”. For the same compound, the Activity (MX1 [4]) was “Active”, the viability at 2 µM (MDA-MB-231 [5]) was 75.9% and the Activity (MDA-MB-231 [6]) was “Active”. For the same compound, the Activity (MDA-MB-231 [7]) was 0.867%, the Activity (MDA-MB-231 [8]) was “Dose-Dependent Effect” and the IC50 (HeLa) was 140 nM. For the same compound, the Activity (MDA-MB-231 [9]) was “Active”, the Nitrite release (MDA-MB-231 [10]) was 54.7 µM and the Activity (MX1 [11]) was “Active”. For the same compound, the inhibition (MDA-MB-231 [12]) was “Active”, the Activity (MDA-MB-231 [13]) was 0.644% and the inhibition in vivo at 150 mg/kg (MDA-MB-231 [14]) was 53.6%. For the same compound, the inhibition (MDA-MB-231 [15]) was “inactive”, the Activity (MDA-MB-231 [16]) was 3.76% and the Activity (MX1 [17]) was “Active”. For the same compound, the Activity (MX1 [18]) was 0.193%, the IC50 (NCI-H460) was 780 nM and the Activity (MDA-MB-231 [19]) was 40%. The Activity (MX1 [20]) was “Dose-Dependent Effect”, the Activity (MX1 [21]) was 39.8% and the Activity (MX1 [22]) was 0.043%. The Activity (MDA-MB-231 [23]) was “Dose-Dependent Effect”, the viability at 5 µM (MX1 [24]) was 27.5% and the IC50 (MDA-MB-231 [25]) was 50 nM. For the same compound, the Activity (MDA-MB-231 [26]) was “Dose-Dependent Effect”, the Activity (MX1 [27]) was 48.2% and the Activity (MDA-MB-231 [28]) was 10.8%. For the same compound, the Activity (MDA-MB-231 [29]) was 20.8%, the Activity (MX1 [30]) was 14.5% and the inhibition in vivo at 150 mg/kg (EMT6) was 50.1%. The Activity (MDA-MB-231 [31]) was 3.12%.
